Laboratory results: PubChem BioAssay (NCI)
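1) Cells in 96-well plates. 2) Compound, 48 h, 5 concentrations. 3) Linear interpolation between surrounding doses. 4) Unreached endpoint = highest concentration. GI50: concentration for 50% inhibition of growth. TGI denotes the concentration required for complete inhibition of growth.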

Tests used:
Assay in all cases: NCI anticancer screen, dose series, 48 h
[1] = tested on: CCRF-CEM leukemia
[2] = tested on: BT-549 breast
[3] = tested on: K-562 leukemia
[4] = tested on: HS 578T breast
[5] = tested on: COLO 205 colon
[6] = tested on: T-47D breast
[7] = tested on: UACC-257 melanoma
[8] = tested on: SNB-19 CNS
[9] = tested on: 786-0 renal
[10] = tested on: A549 NSCLC

| SMILES | GI50 [1] [µM] | TGI [1] [µM] | GI50 [2] [µM] | TGI [2] [µM] | TGI [3] [µM] | GI50 [4] [µM] | TGI [4] [µM] | GI50 [5] [µM] | TGI [5] [µM] | GI50 [6] [µM] | TGI [6] [µM] | GI50 [7] [µM] | TGI [7] [µM] | GI50 [8] [µM] | TGI [8] [µM] | GI50 [9] [µM] | TGI [9] [µM] | GI50 [10] [µM] | TGI [10] [µM] | GI50 [3] [µM] |
| --- | --- | --- | --- | --- | --- | --- | --- | --- | --- | --- | --- | --- | --- | --- | --- | --- | --- | --- | --- | --- |
| COC(=O)c1cc(-c2cc(OC)c(OC)c(OC)c2)[nH]c1N/N=C/c1c(Cl)cccc1Cl | 14.1 | > 100 | 2.74 | 16.3 | > 100 | 1.15 | > 27 | 4.49 | > 68 | 1.92 | 6.29 | 5.82 | 35.7 | 3.37 | 21.4 | 2.03 | 7.18 | 4.97 | 23.3 |  |
| O=C(/C=C/c1cccs1)c1ccc(Nc2nc(Nc3ccc(F)cc3)nc(Nc3ccc(F)cc3)n2)cc1 | 40.9 | > 100 | 16.7 | 32.4 | > 100 | 23.8 | 74.3 | 12.5 | 80.2 | 15.2 | 79.1 | 55.1 | > 100 | 34.1 | > 100 | 38.5 | > 100 | 3.87 | 22.5 | 29.9 |
| Cc1ccc2c(c1C)-c1c(ccc(C)c1C)C(=O)C2=O |  | 0.991 |  | 1.06 | 1.1 |  | 5.76 |  | 4.62 |  | 44.3 |  | 3.48 |  | 23.8 |  | 1.8 |  | 10.3 |  |
| O=C1/C(=C/c2ccc([N+](=O)[O-])o2)Oc2ccc(Br)cc21 | 2 | 4.97 | 1.87 | 3.5 | 4.59 | 3.91 | 26.9 | 2.83 | 7.32 | 1.92 | 4.39 | 2 | 4.38 | 16.1 | 30 | 2.47 | 5.29 | 18.5 | 35.3 | 1.92 |
| COc1ccc(C(=O)COc2cccc(/C=C3\CSc4ccccc4C3=O)c2)cc1 | 0.313 | 1.09 | 1.8 | 3.67 |  | 0.424 | 4.91 | 2.93 | 6.95 | 2.33 | 5.79 | 2.49 | 6.12 | 2.77 | 8.73 | 1.75 | 3.69 | 9.04 | 39.5 | 0.362 |
| CCN(CCNc1ccc(C)c2sc3cc(Cl)ccc3c(=O)c12)CC(C)O (stereo not given) | 2.02 | 4.27 | 2.71 | 10.1 | 3.41 | 2.23 | 4.35 | 1.72 | 3.24 | 1.76 | 4.14 |  |  | 1.65 | 3.66 | 1.44 | 2.75 | 1.85 | 3.45 | 1.82 |
| c1cc(CCN2CCCCC2)ccn1 |  |  |  | > 100 | > 100 |  | > 100 |  | > 100 |  | > 100 |  | > 100 |  | > 100 |  | > 100 |  | > 100 |  |
